Laboratory results as given in patent publication US20260217697A1, “COMPOUNDS COMPRISING HETEROARYL RINGS AND COMPOSITIONS AND METHODS THEREOF” (lonGen Therapeutics Co., Ltd., priority 2022, published 2026).
pIC50: −log10 of the molar value.

target: T1, hTRPV3 (Homo sapiens, UniProt Q8NET8); assay: Whole-cell patch-clamp recording of hTRPV3 current in transfected HEK293T cells (2-APB induced); type: cell-based; conditions: current induced by 300 μM 2-APB, compounds tested up to 10 μM, room temperature
T1 construct: The commercially available plasmid with the full-length cDNA of hTRPV3 (791 aa) (NM_001258205.2); host or cells: HEK293T
T1 sequence (Q8NET8 1-791 isoform Q8NET8-2): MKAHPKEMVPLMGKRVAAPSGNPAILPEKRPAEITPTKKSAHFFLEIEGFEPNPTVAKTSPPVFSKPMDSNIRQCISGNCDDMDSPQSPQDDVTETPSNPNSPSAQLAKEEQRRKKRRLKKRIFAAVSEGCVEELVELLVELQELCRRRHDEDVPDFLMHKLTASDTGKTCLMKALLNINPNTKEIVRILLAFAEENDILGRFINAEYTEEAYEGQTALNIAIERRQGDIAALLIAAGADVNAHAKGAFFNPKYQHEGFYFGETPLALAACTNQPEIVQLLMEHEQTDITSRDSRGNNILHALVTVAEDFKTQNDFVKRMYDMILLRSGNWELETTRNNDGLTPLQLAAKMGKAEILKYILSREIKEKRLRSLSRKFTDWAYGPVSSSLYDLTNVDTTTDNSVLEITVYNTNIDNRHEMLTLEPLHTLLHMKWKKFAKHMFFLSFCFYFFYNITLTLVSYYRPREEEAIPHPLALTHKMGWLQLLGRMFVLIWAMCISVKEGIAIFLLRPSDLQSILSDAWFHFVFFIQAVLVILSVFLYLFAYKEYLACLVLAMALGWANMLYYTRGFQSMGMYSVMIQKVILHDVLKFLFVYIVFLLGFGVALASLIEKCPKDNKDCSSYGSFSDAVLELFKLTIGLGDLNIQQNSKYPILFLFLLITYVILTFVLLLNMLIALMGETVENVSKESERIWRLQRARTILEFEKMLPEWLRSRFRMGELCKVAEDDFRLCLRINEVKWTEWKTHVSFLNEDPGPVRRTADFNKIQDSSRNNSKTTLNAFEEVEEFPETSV
Summary of the method: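 IC50 comes from Hill fits, 0–100% bounds, of percent block of 2-APB-induced current, with compounds perfused at up to 10 μM. Currents elicited at +80/−80 mV (400-ms steps, 2-s interval, 0 mV hold), room temperature, symmetric NaCl/EDTA/HEPES pH 7.4 solutions. Cells: hTRPV3-transfected HEK293T, used 18 h after transfection.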

COc1ncnc(OC)c1C(=O)Nc1nc2c(s1)C1(CN(CCN(C)C)C1)Oc1cc(C(F)(F)F)ccc1-2 [compound 164, N-(1-(2-(dimethylamino)ethyl)-7′-(trifluoromethyl)spiro[azetidine-3,4′-chromeno[4,3-d]thiazol]-2′-yl)-4,6-dimethoxypyrimidine-5-carboxamide] was tested. Which pIC50 did it give?
The pIC50 was 5.00 to 6.00.

How did the pIC50 turn out when COc1ncnc(OC)c1C(=O)Nc1nc2c(s1)C1(CN(CC(=O)O)C1)Oc1cc(C(F)(F)F)ccc1-2 [compound 165] was run?
The pIC50 was ≤ 5.00.

COc1ncnc(OC)c1C(=O)Nc1nc2c(s1)C1(CN(CCO)C1)Oc1cc(C(F)(F)F)ccc1-2 [compound 166, N-(1-(2-hydroxyethyl)-7′-(trifluoromethyl)spiro[azetidine-3,4′-chromeno[4,3-d]thiazol]-2′-yl)-4,6-dimethoxypyrimidine-5-carboxamide] was tested. Which pIC50 did it give?
Its pIC50 is 6.00 to 7.00.

COc1ncnc(OC)c1C(=O)Nc1nc2c(s1)C1(CN(C(C)(C)CC(C)=O)C1)Oc1cc(C(F)(F)F)ccc1-2 [compound 167, 4,6-dimethoxy-N-(1-(2-methyl-4-oxopentan-2-yl)-7′-(trifluoromethyl)spiro[azetidine-3,4′-chromeno[4,3-d]thiazol]-2′-yl)pyrimidine-5-carboxamide] was tested. Which pIC50 did it give?
The pIC50 was 6.00 to 7.00.

COc1ncnc(OC)c1C(=O)Nc1nc2c([se]1)C1(CN(C(=O)OC(C)(C)C)C1)Oc1cc(C(F)(F)F)ccc1-2 [compound 168, tert-butyl 2′-(4,6-dimethoxypyrimidine-5-carboxamido)-7′-(trifluoromethyl)spiro[azetidine-3,4′-chromeno[4,3-d][1,3]selenazole]-1-carboxylate] was tested. Which pIC50 did it give?
Its pIC50 is 6.00 to 7.00.
